Here are results for eleven compounds from patent US9499550B2 (BRISTOL-MYERS SQUIBB COMPANY, priority 2012, dated 2016).

Experiment [1] deals with HCV genotype 1a (H77 strain) replicon in HUH-7 cells. The experiment in a line: HCV replicon luciferase reporter assay, genotype 1a. It counts as cell-based. The conditions noted are these: Hepatitis C virus, Huh-7, 72 h, HCV genotype 1a replicon luciferase, 3 days incubation. Summed up:
(§1)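 Replicon inhibition for both genotypes was measured as Renilla luciferase signal (EnduRen, 7.5 μM final, 2 h) after 3-day, 37° C exposure of replicon-bearing HUH-7 cells in 4% FCS DMEM, 0.5% DMSO. The 1b construct carries S1179I; the 1a H77 construct carries P1496L and S2204I. Twenty-point, 3-fold dilutions were fitted four-parametrically for EC50, and CC50 was taken from multiplexed Cell Titer-Blue.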
In general terms: A replicon is a self-replicating genome or part of one, used to study replication in cells.

Experiment [2] has as its system HCV genotype 1b (Con1) replicon in HUH-7 cells. The experiment in a line: HCV replicon luciferase reporter assay, genotype 1b. The conditions noted are these: Hepatitis C virus, Huh-7, 72 h, HCV genotype 1b replicon luciferase, 3 days incubation. It counts as cell-based. Put shortly:
as §1

Read-outs that look alike come from different tables or passages of the source.

The EC50 is the concentration that produces a half-maximal response. `COc1nnc(O[C@@H]2C[C@H]3C(=O)N[C@]4(C(=O)NS(=O)(=O)C5(C)CC5)C[C@H]4/C=C\CC[C@H](C)C[C@@H](C)[C@H](NC(=O)NC(C)(C)C)C(=O)N3C2)c2ccccc12` [Compound 5011, (2R,6S,7R,9S,13aS,14aR,16aS,Z)-6-(3-(tert-butyl)ureido)-2-((4-methoxyphthalazin-1-yl)oxy)-7,9-dimethyl-N-((1-methylcyclopropyl)sulfonyl)-5,16-dioxo-1,2,3,5,6,7,8,9,10,11,13a,14,14a,15,16,16a-hexadecahydrocyclopropa[e]pyrrolo[1,2-a][1,4]diazacyclopentadecine-14a-carboxamide]: the EC50 in experiment [1] (read-out: LE_1a (EC50)) was 41.1 nM; in experiment [1] (read-out: LE_1a (EC50, range)) it was 4.82 to 103 nM; in experiment [2] (read-out: LE_1b (EC50)), 14.2 nM; in experiment [2] (read-out: LE_1b (EC50, range)), 4.82 to 103 nM.
For the compound `COc1nnc(O[C@@H]2C[C@H]3C(=O)N[C@]4(C(=O)NS(=O)(=O)C5(C)CC5)C[C@H]4/C=C\CC[C@@H](C)C[C@@H](C)[C@H](NC(=O)NC(C)(C)C)C(=O)N3C2)c2ccccc12` [Compound 5012, (2R,6S,7R,9R,13aS,14aR,16aS,Z)-6-(3-(tert-butyl)ureido)-2-((4-methoxyphthalazin-1-yl)oxy)-7,9-dimethyl-N-((1-methylcyclopropyl)sulfonyl)-5,16-dioxo-1,2,3,5,6,7,8,9,10,11,13a,14,14a,15,16,16a-hexadecahydrocyclopropa[e]pyrrolo[1,2-a][1,4]diazacyclopentadecine-14a-carboxamide], the concentration for a half-maximal effect (EC50) was less than 5.46 nM in experiment [1] (read-out: LE_1a (EC50, range)) and less than 5.46 nM in experiment [2] (read-out: LE_1b (EC50, range)).
Regarding `COc1nnc(O[C@@H]2C[C@H]3C(=O)N[C@]4(C(=O)NS(=O)(=O)C5(C)CC5)C[C@H]4/C=C\CC[C@H](C)C[C@@H](C)[C@H](NC(=O)O[C@@H]4C[C@@H]5C[C@@H]5C4)C(=O)N3C2)c2ccccc12` [Compound 5013, (1R,3r,5S)-bicyclo[3.1.0]hexan-3-yl((2R,6S,7R,9S,13aS,14aR,16aS,Z)-2-((4-methoxyphthalazin-1-yl)oxy)-7,9-dimethyl-14a-(((1-methylcyclopropyl)sulfonyl)carbamoyl)-5,16-dioxo-1,2,3,5,6,7,8,9,10,11,13a,14,14a,15,16,16a-hexadecahydrocyclopropa[e]pyrrolo[1,2-a][1,4]diazacyclopentadecin-6-yl)carbamate], the concentration giving a half-maximal response (EC50) in experiment [1] (read-out: LE_1a (EC50, range)) was less than 5.46 nM; in experiment [2] (read-out: LE_1b (EC50, range)), less than 5.46 nM.
With `COc1nnc(O[C@@H]2C[C@H]3C(=O)N[C@]4(C(=O)NS(=O)(=O)C5(C)CC5)C[C@H]4/C=C\CC[C@@H](C)C[C@@H](C)[C@H](NC(=O)O[C@@H]4C[C@@H]5C[C@@H]5C4)C(=O)N3C2)c2ccccc12` [Compound 5014, (1R,3r,5S)-bicyclo[3.1.0]hexan-3-yl((2R,6S,7R,9R,13aS,14aR,16aS,Z)-2-((4-methoxyphthalazin-1-yl)oxy)-7,9-dimethyl-14a-(((1-methylcyclopropyl)sulfonyl)carbamoyl)-5,16-dioxo-1,2,3,5,6,7,8,9,10,11,13a,14,14a,15,16,16a-hexadecahydrocyclopropa[e]pyrrolo[1,2-a][1,4]diazacyclopentadecin-6-yl)carbamate], the EC50 was less than 5.46 nM in experiment [1] (read-out: LE_1a (EC50, range)) and less than 5.46 nM in experiment [2] (read-out: LE_1b (EC50, range)).
As for `COc1nnc(O[C@@H]2C[C@H]3C(=O)N[C@]4(C(=O)NS(=O)(=O)C5(C)CC5)C[C@H]4/C=C\CC[C@H](C)C[C@@H](C)[C@H](NC(=O)OC(C)(C)C)C(=O)N3C2)c2ccccc12` [Compound 5015, tert-butyl ((2R,6S,7R,9S,13aS,14aR,16aS,Z)-2-((4-methoxyphthalazin-1-yl)oxy)-7,9-dimethyl-14a-(((1-methylcyclopropyl)sulfonyl)carbamoyl)-5,16-dioxo-1,2,3,5,6,7,8,9,10,11,13a,14,14a,15,16,16a-hexadecahydrocyclopropa[e]pyrrolo[1,2-a][1,4]diazacyclopentadecin-6-yl)carbamate], the EC50 in experiment [1] (read-out: LE_1a (EC50, range)) is 4.82 to 103 nM; in experiment [2] (read-out: LE_1b (EC50, range)) it was less than 5.46 nM.
Turning to `COc1nnc(O[C@@H]2C[C@H]3C(=O)N[C@]4(C(=O)NS(=O)(=O)C5(C)CC5)C[C@H]4/C=C\CC[C@@H](C)C[C@@H](C)[C@H](NC(=O)OC(C)(C)C)C(=O)N3C2)c2ccccc12` [Compound 5016, tert-butyl ((2R,6S,7R,9R,13aS,14aR,16aS,Z)-2-((4-methoxyphthalazin-1-yl)oxy)-7,9-dimethyl-14a-(((1-methylcyclopropyl)sulfonyl)carbamoyl)-5,16-dioxo-1,2,3,5,6,7,8,9,10,11,13a,14,14a,15,16,16a-hexadecahydrocyclopropa[e]pyrrolo[1,2-a][1,4]diazacyclopentadecin-6-yl)carbamate], the EC50 was less than 5.46 nM in experiment [1] (read-out: LE_1a (EC50, range)) and less than 5.46 nM in experiment [2] (read-out: LE_1b (EC50, range)).
With `CC[C@@H]1C[C@@H](C)CC/C=C\[C@@H]2C[C@@]2(C(=O)NS(=O)(=O)C2(C)CC2)NC(=O)[C@@H]2C[C@@H](Oc3nnc(OC)c4ccccc34)CN2C(=O)[C@H]1NC(=O)OC(C)(C)C(F)(F)F` [Compound 5017, 1,1,1-trifluoro-2-methylpropan-2-yl((2R,6S,7R,9S,13aS,14aR,16aS,Z)-7-ethyl-2-((4-methoxyphthalazin-1-yl)oxy)-9-methyl-14a-(((1-methylcyclopropyl)sulfonyl)carbamoyl)-5,16-dioxo-1,2,3,5,6,7,8,9,10,11,13a,14,14a,15,16,16a-hexadecahydrocyclopropa[e]pyrrolo[1,2-a][1,4]diazacyclopentadecin-6-yl)carbamate], the EC50 was 4.82 to 103 nM in experiment [1] (read-out: LE_1a (EC50, range)) and less than 5.46 nM in experiment [2] (read-out: LE_1b (EC50, range)).
In the case of `CC[C@@H]1C[C@H](C)CC/C=C\[C@@H]2C[C@@]2(C(=O)NS(=O)(=O)C2(C)CC2)NC(=O)[C@@H]2C[C@@H](Oc3nnc(OC)c4ccccc34)CN2C(=O)[C@H]1NC(=O)OC(C)(C)C(F)(F)F` [Compound 5018, 1,1,1-trifluoro-2-methylpropan-2-yl((2R,6S,7R,9R,13aS,14aR,16aS,Z)-7-ethyl-2-((4-methoxyphthalazin-1-yl)oxy)-9-methyl-14a-(((1-methylcyclopropyl)sulfonyl)carbamoyl)-5,16-dioxo-1,2,3,5,6,7,8,9,10,11,13a,14,14a,15,16,16a-hexadecahydrocyclopropa[e]pyrrolo[1,2-a][1,4]diazacyclopentadecin-6-yl)carbamate], the EC50 is less than 5.46 nM in experiment [1] (read-out: LE_1a (EC50, range)) and less than 5.46 nM in experiment [2] (read-out: LE_1b (EC50, range)).
For `[2H]C([2H])([2H])C(OC(=O)N[C@@H]1C(=O)N2C[C@H](Oc3nnc(OC)c4ccccc34)C[C@H]2C(=O)N[C@]2(C(=O)NS(=O)(=O)C3(C)CC3)C[C@H]2/C=C\CC[C@H](C)C[C@H]1CC)(C([2H])([2H])[2H])C(F)(F)F` [Compound 5019], the EC50 in experiment [1] (read-out: LE_1a (EC50)) is 7.27 nM; in experiment [1] (read-out: LE_1a (EC50, range)), 4.82 to 103 nM; in experiment [2] (read-out: LE_1b (EC50)), 3.65 nM; in experiment [2] (read-out: LE_1b (EC50, range)) it was less than 5.46 nM.
On to `[2H]C([2H])([2H])C(OC(=O)N[C@@H]1C(=O)N2C[C@H](Oc3nnc(OC)c4ccccc34)C[C@H]2C(=O)N[C@]2(C(=O)NS(=O)(=O)C3(C)CC3)C[C@H]2/C=C\CC[C@@H](C)C[C@H]1CC)(C([2H])([2H])[2H])C(F)(F)F` [Compound 5020], for which the concentration for a half-maximal effect (EC50) is less than 5.46 nM in experiment [1] (read-out: LE_1a (EC50, range)) and less than 5.46 nM in experiment [2] (read-out: LE_1b (EC50, range)).
Regarding `[2H]C([2H])([2H])C(C)(OC(=O)N[C@@H]1C(=O)N2C[C@H](Oc3nnc(OC)c4ccccc34)C[C@H]2C(=O)N[C@]2(C(=O)NS(=O)(=O)C3(C)CC3)C[C@H]2/C=C\CC[C@H](C)C[C@H]1CC)C([2H])([2H])[2H]` [Compound 5021], the EC50 in experiment [1] (read-out: LE_1a (EC50, range)) was 4.82 to 103 nM; in experiment [2] (read-out: LE_1b (EC50, range)), less than 5.46 nM.
